In patent US20220289698A1, “INHIBITORS OF HUMAN ATGL” (Karl-Franzens-Universität Graz, priority 2019, published 2022):
Where two headings read alike, the source gives them in different places.

Legend:
murine ATGL = target: T1, murine ATGL (Mus musculus, UniProt Q8BJ56); assay: TG hydrolase activity, Expi lysates expressing mouse ATGL + CGI-58, radiolabelled triolein; type: biochemical
T1 construct: made in house; host or cells: Expi cells (lysate)
T1 sequence (Q8BJ56 1-486): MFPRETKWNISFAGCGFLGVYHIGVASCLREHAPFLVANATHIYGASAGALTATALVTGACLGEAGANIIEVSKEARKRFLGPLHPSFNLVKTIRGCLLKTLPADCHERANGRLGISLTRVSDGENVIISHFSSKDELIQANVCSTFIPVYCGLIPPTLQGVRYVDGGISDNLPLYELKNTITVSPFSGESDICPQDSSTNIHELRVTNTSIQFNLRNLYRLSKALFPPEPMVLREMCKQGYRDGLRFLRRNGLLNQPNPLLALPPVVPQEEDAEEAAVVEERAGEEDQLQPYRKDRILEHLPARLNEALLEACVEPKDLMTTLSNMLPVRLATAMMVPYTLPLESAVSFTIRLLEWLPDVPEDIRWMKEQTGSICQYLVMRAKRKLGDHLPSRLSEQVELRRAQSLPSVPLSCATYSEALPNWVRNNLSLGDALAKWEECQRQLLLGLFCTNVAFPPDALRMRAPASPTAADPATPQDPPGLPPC
How it was run: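 Lysates of Expi cells overexpressing mouse ATGL, with added recombinant CGI-58, were incubated with inhibitor at 50 μM. Substrate was emulsified radiolabelled triolein with PC/PI in 100 mM potassium phosphate pH 7.0 and 5% FA-free BSA, 1 h at 37° C. Released FA were extracted and counted by scintillation; triplicates, DMSO control.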

goat ATGL = assay: Goat ATGL inhibition, Expi lysates + CGI-58; type: biochemical
Method: Lysates from Expi cells overexpressing ATGL from goat (Capra hircus) were incubated with recombinant purified ATGL co-activator CGI-58 and ATGL inhibitors at 50 μM. Subsequently, substrate containing radiolabeled triolein was added and liberated FA were extracted and quantified by liquid scintillation. Inhibitors were dissolved in DMSO which was used as control. Samples were measured in triplicates.

hHSL = target: T2, hHSL (Homo sapiens, UniProt Q05469); assay: hHSL off-target inhibition; type: biochemical; conditions: read-out: hHSL off-target inhibition [% inhibition at 100 μM]
T2 construct: made in house; host or cells: Expi cells (lysate)
T2 sequence (Q05469 1-1076): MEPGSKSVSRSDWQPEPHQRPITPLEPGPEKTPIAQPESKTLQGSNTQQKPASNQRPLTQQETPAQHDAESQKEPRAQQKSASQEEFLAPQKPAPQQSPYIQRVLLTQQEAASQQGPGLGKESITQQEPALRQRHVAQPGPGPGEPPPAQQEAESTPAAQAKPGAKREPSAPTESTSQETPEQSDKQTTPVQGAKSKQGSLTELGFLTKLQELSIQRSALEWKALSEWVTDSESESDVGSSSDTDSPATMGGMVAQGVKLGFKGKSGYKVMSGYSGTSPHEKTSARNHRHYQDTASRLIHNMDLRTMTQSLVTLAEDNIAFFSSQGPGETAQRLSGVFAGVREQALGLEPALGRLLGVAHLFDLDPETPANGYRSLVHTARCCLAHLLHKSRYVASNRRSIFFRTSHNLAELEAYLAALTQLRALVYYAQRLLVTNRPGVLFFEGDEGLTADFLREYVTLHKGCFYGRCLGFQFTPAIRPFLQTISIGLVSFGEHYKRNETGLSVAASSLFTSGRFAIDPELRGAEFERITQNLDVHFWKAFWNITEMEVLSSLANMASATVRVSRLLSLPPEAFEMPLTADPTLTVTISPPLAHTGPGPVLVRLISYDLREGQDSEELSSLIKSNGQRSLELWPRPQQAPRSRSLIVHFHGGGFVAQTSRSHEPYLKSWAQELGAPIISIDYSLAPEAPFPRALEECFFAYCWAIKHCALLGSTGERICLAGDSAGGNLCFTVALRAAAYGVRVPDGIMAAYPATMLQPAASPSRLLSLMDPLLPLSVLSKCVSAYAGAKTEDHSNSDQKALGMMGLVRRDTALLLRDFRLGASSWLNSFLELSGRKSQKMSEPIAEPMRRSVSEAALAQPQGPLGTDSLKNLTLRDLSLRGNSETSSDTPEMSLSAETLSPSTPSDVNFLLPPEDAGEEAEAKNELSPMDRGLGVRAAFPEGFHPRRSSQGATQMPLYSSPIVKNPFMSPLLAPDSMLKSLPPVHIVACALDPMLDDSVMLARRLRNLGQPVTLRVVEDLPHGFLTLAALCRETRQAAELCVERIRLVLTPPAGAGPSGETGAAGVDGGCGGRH
Method: Expi lysates expressing hHSL were preincubated with 100 μM Inhibitors for 30 min and incubated with 1 mM pNV substrate for 30 min. Samples measured in triplicates.

[1] = system: differentiated SGBS adipocytes; assay: Isoproterenol-stimulated lipolysis in differentiated SGBS adipocytes; type: cell-based; conditions: Homo sapiens, 2 h pretreatment, 1 μM isoproterenol 1 h
Method: Human differentiated SGBS adipocytes were pretreated with DMSO or ATGL inhibitors for 2 h. Subsequently, lipolysis was stimulated with 1 μM Isoproterenol for 1 h and fatty acid release was determined from media via NEFA Reagent (Wako Diagnostics). Samples were measured in triplicates.
Human differentiated SGBS adipocytes were pretreated with DMSO or ATGL inhibitors for 2 h. Subsequently, lipolysis was stimulated with 1 μM Isoproterenol for 1 h and glycerol release was determined from media via Free glycerol reagent (Sigma Aldrich). Samples were measured in triplicates.

[2] = 50 μM compound, Example 237, read-out: Inhibition of murine ATGL at 50 μM − mean [%]
[3] = 50 μM, Example 238, read-out: % Inhibition of murine ATGL at 50 μM
[4] = fatty acid release, read-out: IC50 SGBS FA release
[5] = glycerol release, read-out: IC50 SGBS glycerol release
[6] = 50 μM, overview table, read-out: mouse ATGL inhibition [% inhibition at 50 μM]

| Structure (SMILES) | inhibition at 50 µM (murine ATGL; [2]) [%] | goat ATGL inhibition [% inhibition at 50 μM (goat ATGL) [%] | inhibition at 100 µM (hHSL) [%] | inhibition at 50 µM (murine ATGL; [3]) [%] | IC50 [1, 4] [nM] | IC50 [1, 5] [nM] | inhibition at 25 µM (murine ATGL; Example 238) [%] | inhibition at 50 µM (murine ATGL; [6]) [%] |
| --- | --- | --- | --- | --- | --- | --- | --- | --- |
| CCOc1ccc(-c2nc(C(=O)OCc3cccs3)cs2)cc1 [Example 152, Thiophen-2-ylmethyl 2-(4-ethoxyphenyl)thiazole-4-carboxylate] | 74 | 0 | 25 | – | – | – | – | – |
| CC#CCOC(=O)c1csc(-c2ccc(OCC)cc2)n1 [Example 209, But-2-yn-1-yl 2-(4-ethoxyphenyl)thiazole-4-carboxylate] | – | 25 | 40 | 76 | – | – | – | – |
| CCOc1ccc(-c2cccc(C(=O)OCc3ccco3)n2)cc1 [Example 190, Furan-2-ylmethyl 6-(4-ethoxyphenyl)picolinate] | – | 25 | 0 | 80 | 12000 | 25000 | – | – |
| CCOc1ccc(-c2cc(OC)cc(C(=O)OC(C)C)n2)cc1 [Example 35] | 0 | – | 0 | – | 1000 | 2000 | – | – |
| C#C[C@H](C)OC(=O)c1csc(-c2ccc(OCC)cc2)n1 [Example 210, (S)-But-3-yn-2-yl 2-(4-ethoxyphenyl)thiazole-4-carboxylate] | – | 20 | 0 | 60 | 600 | 1000 | 47 | – |
| CCOc1ccc(-c2nc(C(=O)OCc3ccc(Cl)s3)cs2)cc1 [Example 223, (5-Chlorothiophen-2-yl)methyl 2-(4-ethoxyphenyl)thiazole-4-carboxylate] | – | 40 | 40 | 71 | – | – | – | – |
| CCOc1ccc(-c2cccc(C(=O)OCc3cccs3)n2)cc1 [Example 189, Thiophen-2-ylmethyl 6-(4-ethoxyphenyl)picolinate] | – | 50 | 0 | 87 | – | – | – | – |
| CCOc1ccc(-c2nc(C(=O)OCc3ccoc3)cs2)cc1 [Example 216, Furan-3-ylmethyl 2-(4-ethoxyphenyl)thiazole-4-carboxylate] | – | 50 | 30 | 81 | 800 | 1000 | 70 | – |
| COc1cc(C(=O)OC(C)C)nc(-c2ccc(OC(C)C)cc2)c1 [Example 201, Isopropyl 6-(4-isopropoxyphenyl)-4-methoxypicolinate] | – | 0 | 0 | 45 | – | – | – | 0 |
| C#C[C@@H](C)OC(=O)c1csc(-c2ccc(OCC)cc2)n1 [Example 211, (R)-But-3-yn-2-yl 2-(4-ethoxyphenyl)thiazole-4-carboxylate] | – | 30 | 40 | 82 | 900 | 900 | 73 | 60 |
| CCCCOC(=O)c1csc(-c2ccc(OCC)cc2)n1 [Example 212, Butyl 2-(4-ethoxyphenyl)thiazole-4-carboxylate] | – | 20 | 0 | 56 | – | – | 47 | – |
| CCOc1ccc(-c2nc(C(=O)OCc3ccc(Br)s3)cs2)cc1 [Example 224, (5-Bromothiophen-2-yl)methyl 2-(4-ethoxyphenyl)thiazole-4-carboxylate] | – | 40 | 95 | 68 | – | – | – | – |
| CCOc1ccc(-c2nc(C(=O)OCc3ccsc3)cs2)cc1 [Example 215, Thiophen-3-ylmethyl 2-(4-ethoxyphenyl)thiazole-4-carboxylate] | – | 50 | 30 | 81 | 3000 | 4000 | 71 | 60 |
